Measurements published in article PMC5473904, “Epigenetic and antitumor effects of platinum(IV)-octanoato conjugates” (Scientific Reports, 2017).

Assays:
[1] = test system: Lewis lung carcinoma (LLC); assay: In vivo antitumor activity in Lewis lung carcinoma; details: LLC in C57BL mice; for Average tumor weight (mean ± SD): 20 mg kg^−1 daily orally day 7–14, day 15; for Inhibition of tumor growth: 20 mg kg^−1 daily orally day 7–14, day 15, referred to control animals
Protocol: Xenograft LLC tumors were grown in C57BL mice that were subsequently treated with […] of either Pt(IV) complex. Pt(IV) prodrugs were administered by oral gavage by taking advantage of their excellent stability, enabling in vivo oral formulation making platinum therapy safer lessening side effects and partially overcoming resistance to platinum(II) drugs, [35]. The schedule of Pt(IV) prodrug administration in vivo was initially determined by assessing the total dose that could be injected without undue toxicity in nontumor-bearing C57BL mice. From day 7 after tumor inoculation, when tumors became visible, tumor-bearing mice received daily doses of the Pt(IV) derivatives (20 mg kg^−1, by oral gavage).
The LLC cell line was purchased from ECACC, United Kingdom. The LLC cell line was maintained in DMEM (Euroclone) supplemented with 10% heat-inactivated fetal bovine serum (FBS; Euroclone), 10 mM L-glutamine, 100 U mL^−1 penicillin, and 100 μg mL^−1 streptomycin in a 5% CO2 air incubator at 37 °C. The LLC was implanted intramuscularly (im) as a 2 × 10^6 cell inoculum into the right hind leg of 8-week old male and female C57BL mice (24 ± 3 g body weight). […] At day 15, animals were sacrificed, the legs were amputated at the proximal end of the femur, and the inhibition of tumor growth was determined according to the difference in weight of the tumor-bearing leg, and the healthy leg of the animals expressed as a percentage referred to the control animals. Body weight was measured every two days and was taken as a parameter for systemic toxicity. All the values are the means ± SD of not less than three measurements.

[2] = test system: A2780 cells; assay: Pt accumulation in A2780 cells with and without serum, BSA or lipoproteins; assay type: cell-based, human; details: A2780, 10 μM, 4 h
Protocol: Interactions with serum proteins
The trends observed in the results of the in vivo antitumor activity experiments, such as the tissue biodistribution (Fig. S2A), blood levels (Fig. S2B), and cellular accumulation (Table 2) of Pt(IV) complexes could be also related to their sequestration by plasma proteins, mainly by 8 human serum albumin . Thus, the accumulation experiments in cellulo were carried out employing A2780 cells without serum (and therefore without BSA) in the culture medium. As shown in Fig. S3, when passing from the treatment in complete medium (+FBS) to the […]
Supplementary Figure S3: Pt accumulation in A2780 cells treated with Pt(IV) prodrugs […]
treatment in complete medium (+FBS) and in serum-free medium (- FBS). Data are means of at least three replicates and were tested using the two sample t-test (***p<0.001). […]
medium supplemented with 10% FBS contains 30 µM BSA, which is known to transport octanoate9,10, and 300 μg mL-1 cholesterol in the most lipophilic component, i.e. lipoproteins11, which are known to transport lipophilic drugs12,13. To verify whether the accumulation of Pt(IV)diOA could be mainly affected by BSA or lipoproteins, the experiments were repeated in serum-free medium supplemented with BSA (-FBS, + BSA) or LPC, lipoprotein-rich cholesterol (-FBS + LPC), respectively (see experimental part). As […]
(1 picture or pasted object on this page, not shown here)
(control, -FBS), in serum-free medium supplemented with 30 µM BSA (-FBS, + BSA), with lipoproteins (-FBS + LPC), and in complete medium (+FBS). Data are means of at least three replicates and were tested using the two sample t-test (***p<0.001). […]
Co.) and transferred into a microwave Teflon vessel. Subsequently, samples were submitted to the standard procedure using a speed microwave. After cooling, each mineralized sample was analyzed for platinum by ICP-MS (ThermoOptek X Series 2). Instrumental settings were optimized to achieve maximum sensitivity for platinum. For quantitative determination, the most abundant isotopes of platinum and indium (used as internal standard) were measured at m/z 195 and 115, respectively.
Accumulation of platinum in tumor cells treated with Pt(IV) complexes and cisplatin (in cellulo experiments) in the absence of serum. A2780 cells were seeded in 10 mm Petri dishes and treated with the platinum complexes (10 μM) for 4 h in complete medium, i.e. + 10 % FBS (HyClone, GE Healthcare). At time zero, 100 μL of medium was taken out from each sample to check the extracellular Pt concentration. […]
The level of Pt found in cells after drug treatment and normalized 6 upon the cell number (cellular Pt accumulation) was expressed as ng Pt per 10 cells. […]

[3] = test system: HSF human primary skin fibroblasts; assay: MTT cytotoxicity, 72 h; assay type: cell-based; details: platinum complexes
[4] = test system: LNCaP human prostate adenocarcinoma cells; assay: MTT cytotoxicity, 72 h; assay type: cell-based; details: platinum complexes

Row | SMILES | Average tumor weight (mean ± SD) [1] | Inhibition of tumor growth [1] | Change of Pt accumulation from complete medium (+FBS) to serum-free medium (-FBS) [2] | IC50 [3] | IC50 [4] | Effect of BSA addition to serum-free medium on Pt accumulation ([2]; -FBS + BSA) | Effect of LPC (lipoprotein-rich cholesterol) supplementation of serum-free medium on Pt accumulation ([2]; -FBS + LPC)
1 | CCCC(CCC)C(=O)[O][Pt]([NH2])([NH2])([Cl])([Cl])[O]C(=O)C(CCC)CCC [Pt(IV)diVPA, cis, cis, trans-[Pt(IV)(NH3)2Cl2(VPA)2]] | 0.174 ± 0.08 g | 68% | no significant change |  |  |  | 
2 | N.N.[Cl][Pt][Cl] [cisplatin, reference compound] |  |  |  | 69 ± 0.87 µM | 8.54 ± 1.78 µM |  | 
3 | CCCCCCCC(=O)[O][Pt]([NH2])([NH2])([Cl])([Cl])[O]C(=O)CCCCCCC [Pt(IV)diOA, cis, cis, trans-[Pt(IV)(NH3)2Cl2(OA)2]] | 0.025 ± 0.03 g | 95% | 3 fold | 0.077 ± 0.001 µM | 0.052 ± 0.005 µM | negligible effect | decreased Pt accumulation
